Reference: patent US10835549B2, “Polyplexes” (Vanderbilt University, priority 2013, dated 2020)
No end group written: not given here.

Columns and labels:
[1] = Flow cytometric quantification of intracellular uptake and retention; conditions: human
Procedure: (§1) HCAVSMCs were grown to 80-90% confluence, harvested, and seeded at 20,000 cells per well in a 24-well plate and were allowed to adhere overnight in low serum media. […] Following treatment, cells were washed with PBS −/−, washed with CellScrub buffer (Genlantis) for 10 minutes at room temperature to remove extracellular polyplexes and/or peptide, washed 2× in PBS −/−, and the media was refreshed with complete growth media. Cells were then incubated for an additional 0, 12, 24, 72, or 120 hours. Cells were then washed with PBS −/−, trypsinized, and resuspended in 0.1% Trypan blue in PBS (−/−) for analysis on a FACSCalibur flow cytometer (Becton Dickinson) with BD CellQuest™ Pro software (V 5.2). Data was exported and analyzed with FlowJo software (V 7.6.4). All samples are run in triplicate.
(§2) Studies were done using a fluorescently labeled peptide and flow cytometry. […] Exponential lines were fit to each data set in order to determine a fluorescence half-life for each treatment group. Mean Fluorescence Intensity values were reported as increase in MFI compared to untreated controls, n=3.

HCAVSMCs = test: as above; conditions: HCAVSMCs, up to 5 days after treatment
Procedure: as §1, §2

rat aortic smooth muscle = test: Rat aortic smooth muscle contraction (muscle bath, phenylephrine); conditions: 30 minutes incubation, phenylephrine challenge, n=6
Procedure: FIGS. 71-73 show the results of an example wherein rat aortic smooth muscle was suspended on a muscle bath apparatus. Tissue was equilibrated in bicarbonate buffer and challenged with KCl (110 mM) to confirm viability of the tissue. After returning the tissue to basal tension, the smooth muscle was challenged with 5*10^−8 M phenylephrine (5*10^−8 M) and then washed with bicarbonate buffer. The tissue was then returned to basal tension through subsequent washes of bicarbonate buffer and then either treated with control, AZX 100 peptide, or AZX polyplexes. After 30 minutes of incubation, the tissue was challenged with phenylephrine, and the contractile force was compared with the initial contraction to determine the percent inhibition that occurs. […] (n=6)

human saphenous vein = test: HSV enhanced relaxation with AZX 100 (muscle bath, phenylephrine / sodium nitroprusside); conditions: 30 minutes incubation, n=3
[2] = test system: human bronchiolar airway smooth muscle (HASM); test: Relaxation of human bronchiolar airway smooth muscle (HASM); parameters: unit not given here

Row | Substance | half-life at 10 μM [1] | intracellular retention of the peptide (HCAVSMCs) | inhibition of contraction (rat aortic smooth muscle) | enhancement of relaxation (human saphenous vein) | Relaxation of HASM ([2]; HASM 11, .5 mM) | Relaxation of HASM ([2]; HASM 17, 1 mM) | Relaxation of HASM ([2]; HASM 17, .5 mM) | Relaxation of HASM ([2]; HASM 18, 1 mM) | Relaxation of HASM ([2]; HASM 20, 1 mM) | Relaxation of HASM ([2]; HASM 20, .5 mM) | Relaxation of HASM ([2]; HASM 22, 1 mM) | Relaxation of HASM ([2]; HASM 22, .5 mM)
1 | YARAAARQARAKALARQLGVAA [MK2i] | 98.4 h | more rapidly lost intracellular peptide | – | – | – | – | – | – | – | – | – | –
2 | AZX 100 peptide: AZX100 peptide (SEQ ID NO: 2), which can be utilized for airway relaxation (YARAAARQARAWLRRASAPLPGLK; AZX-100 Sequence) | – | – | dose dependent inhibition of contraction | dose dependent enhancement of relaxation | 24 | 25 | 10 | 80 | 76 | 36 | 84 | 40
